Earlier results as cited in patent US20170303537A1, “COMPOSITIONS OF A QUATERNARY AMMONIUM COMPOUND WITH A MONOCARBOXYLIC FATTY ACID” (OMS INVESTMENTS, INC., priority 2016, published 2017).

- pKa: about 5
Compound: CCCCCCCCC(=O)O [pelargonic acid]
